# Measured values published in PubChem BioAssay AID1963870 (Molecular Pharmacology Branch, DTP, NCI, 2024).
# Active and inactive are the calls of the source. The calls were made as follows: active = viability on the fitted dose curve at most 10% of control; inactive = the rest.
# System: 292921-168-R-J2-PDC KRAS tumor spheroid viability
# Assay: Anticancer human tumor 292921-168-R-J2-PDC patient-derived pancreatic carcinoma cell line growth inhibition [KRAS2]
# Details: spheroids with HUVEC and MSC; for viability, T/C: stronger effect = lower value
# Summary of the method: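 Combination screen of spheroid viability in tumor-cell co-cultures with endothelial (HUVEC) and mesenchymal stem cell stroma. Each agent was tested in half-log dilutions, topping at clinical Cmax or at 10 microM without a known Cmax.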
# [1] = curve of first compound, second compound 0.1 µM
# [2] = curve of first compound, second compound 0.316 µM
# [3] = curve of first compound, second compound 1 µM
# [4] = curve of first compound, second compound 3.16 µM
# [5] = curve of first compound, second compound 10 µM
# [6] = second compound 0.1 µM, first compound 0.0316 µM
# [7] = second compound 0.1 µM, first compound 0.1 µM
# [8] = second compound 0.316 µM, first compound 0.0316 µM
# [9] = second compound 0.316 µM, first compound 0.1 µM
# [10] = second compound 1 µM, first compound 0.0316 µM
# [11] = second compound 1 µM, first compound 0.1 µM
# [12] = second compound 3.16 µM, first compound 0.0316 µM
# [13] = second compound 3.16 µM, first compound 0.1 µM
# [14] = second compound 10 µM, first compound 0.0316 µM
# [15] = second compound 10 µM, first compound 0.1 µM
# [16] = second compound 0.1 µM, first compound 0.316 µM
# [17] = second compound 0.1 µM, first compound 1 µM
# [18] = second compound 0.1 µM, first compound 3.16 µM
# [19] = second compound 0.1 µM, first compound 10 µM
# [20] = second compound 0.316 µM, first compound 0.316 µM
# [21] = second compound 0.316 µM, first compound 1 µM
# [22] = second compound 0.316 µM, first compound 3.16 µM
# [23] = second compound 0.316 µM, first compound 10 µM
# [24] = second compound 1 µM, first compound 0.316 µM
# [25] = second compound 1 µM, first compound 1 µM
# [26] = second compound 1 µM, first compound 3.16 µM
# [27] = second compound 1 µM, first compound 10 µM
# [28] = second compound 3.16 µM, first compound 0.316 µM
# [29] = second compound 3.16 µM, first compound 1 µM
# [30] = second compound 3.16 µM, first compound 3.16 µM
# [31] = second compound 3.16 µM, first compound 10 µM
# 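For IC50 in this document: drug exposure lasted seven days after spheroids formed for three days.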
# 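For viability, T/C in this document: drug exposure lasted seven days after spheroids formed for three days; percent of DMSO vehicle control viability which is 100%.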
smiles,measurement,setting,value
Cn1ncnc1[C@H]1c2n[nH]c(=O)c3cc(F)cc(c23)N[C@@H]1c1ccc(F)cc1 + COc1cc2nc(C)nc(NC(C)c3cc(N)cc(C(F)(F)F)c3)c2cc1OC1CCOC1,IC50,[1],> 100 nM
same,IC50,[2],> 100 nM
same,IC50,[3],> 100 nM
same,IC50,[4],37.3 nM
same,IC50,[5],< 0.316 nM
same,"viability, T/C","second compound 0.1 µM, first compound 0.000316 µM",93.5%
same,"viability, T/C","second compound 0.1 µM, first compound 0.001 µM",92.1%
same,"viability, T/C","second compound 0.1 µM, first compound 0.00316 µM",85.8%
same,"viability, T/C","second compound 0.1 µM, first compound 0.01 µM",85.7%
same,"viability, T/C",[6],68.6%
same,"viability, T/C",[7],60.5%
same,"viability, T/C","second compound 0.316 µM, first compound 0.000316 µM",84.2%
same,"viability, T/C","second compound 0.316 µM, first compound 0.001 µM",87%
same,"viability, T/C","second compound 0.316 µM, first compound 0.00316 µM",84.8%
same,"viability, T/C","second compound 0.316 µM, first compound 0.01 µM",84.4%
same,"viability, T/C",[8],70.3%
same,"viability, T/C",[9],64.3%
same,"viability, T/C","second compound 1 µM, first compound 0.000316 µM",84%
same,"viability, T/C","second compound 1 µM, first compound 0.001 µM",84.9%
same,"viability, T/C","second compound 1 µM, first compound 0.00316 µM",74.9%
same,"viability, T/C","second compound 1 µM, first compound 0.01 µM",73.3%
same,"viability, T/C",[10],69.6%
same,"viability, T/C",[11],57.4%
same,"viability, T/C","second compound 3.16 µM, first compound 0.000316 µM",63.5%
same,"viability, T/C","second compound 3.16 µM, first compound 0.001 µM",60.1%
same,"viability, T/C","second compound 3.16 µM, first compound 0.00316 µM",56.4%
same,"viability, T/C","second compound 3.16 µM, first compound 0.01 µM",57.7%
same,"viability, T/C",[12],52.1%
same,"viability, T/C",[13],42%
same,"viability, T/C","second compound 10 µM, first compound 0.000316 µM",26.1%
same,"viability, T/C","second compound 10 µM, first compound 0.001 µM",27.6%
same,"viability, T/C","second compound 10 µM, first compound 0.00316 µM",30.6%
same,"viability, T/C","second compound 10 µM, first compound 0.01 µM",22.6%
same,"viability, T/C",[14],23.6%
same,"viability, T/C",[15],23.9%
CC1(C)CCC(CN2CCN(c3ccc(C(=O)NS(=O)(=O)c4ccc(NCC5CCOCC5)c([N+](=O)[O-])c4)c(Oc4cnc5[nH]ccc5c4)c3)CC2)=C(c2ccc(Cl)cc2)C1 + C=CC(=O)N1CCN(c2nc(OCC3CCCN3C)nc3c2CCN(c2cccc4cccc(C)c24)C3)CC1CC#N,IC50,"curve of first compound, second compound 0.0316 µM",2040 nM
same,IC50,[1],2100 nM
same,IC50,[2],1810 nM
same,IC50,[3],430 nM
same,IC50,[4],< 31.6 nM
same,"viability, T/C","second compound 0.0316 µM, first compound 0.0316 µM",99.8%
same,"viability, T/C","second compound 0.0316 µM, first compound 0.1 µM",101%
same,"viability, T/C","second compound 0.0316 µM, first compound 0.316 µM",96.1%
same,"viability, T/C","second compound 0.0316 µM, first compound 1 µM",92.5%
same,"viability, T/C","second compound 0.0316 µM, first compound 3.16 µM",23.8%
same,"viability, T/C","second compound 0.0316 µM, first compound 10 µM",4.26%
same,"viability, T/C",[6],98.1%
same,"viability, T/C",[7],103%
same,"viability, T/C",[16],100%
same,"viability, T/C",[17],96.1%
same,"viability, T/C",[18],24.7%
same,"viability, T/C",[19],4.98%
same,"viability, T/C",[8],88.2%
same,"viability, T/C",[9],98.4%
same,"viability, T/C",[20],83.2%
same,"viability, T/C",[21],90.2%
same,"viability, T/C",[22],12.6%
same,"viability, T/C",[23],4.29%
same,"viability, T/C",[10],58%
same,"viability, T/C",[11],59.7%
same,"viability, T/C",[24],52%
same,"viability, T/C",[25],35.3%
same,"viability, T/C",[26],2.72%
same,"viability, T/C",[27],2.98%
same,"viability, T/C",[12],0.13%
same,"viability, T/C",[13],0.2%
same,"viability, T/C",[28],0.14%
same,"viability, T/C",[29],0.12%
same,"viability, T/C",[30],0.37%
same,"viability, T/C",[31],0.26%
O=C(c1cc(Cc2n[nH]c(=O)c3ccccc23)ccc1F)N1CCN(C(=O)C2CC2)CC1 + CC1OCC2(CCN(c3cnc(Sc4ccnc(N)c4Cl)c(N)n3)CC2)C1N,IC50,[1],7220 nM
same,IC50,[2],5520 nM
same,IC50,[3],8780 nM
same,IC50,[4],< 31.6 nM
same,IC50,[5],< 31.6 nM
same,"viability, T/C",[6],90.5%
same,"viability, T/C",[7],82.3%
same,"viability, T/C",[16],81.2%
same,"viability, T/C",[17],90.5%
same,"viability, T/C",[18],74.3%
same,"viability, T/C",[19],40.5%
same,"viability, T/C",[8],76.5%
same,"viability, T/C",[9],63.6%
same,"viability, T/C",[20],63.8%
same,"viability, T/C",[21],78%
same,"viability, T/C",[22],62.5%
same,"viability, T/C",[23],34.6%
same,"viability, T/C",[10],138%
same,"viability, T/C",[11],120%
same,"viability, T/C",[24],113%
same,"viability, T/C",[25],120%
same,"viability, T/C",[26],83.9%
same,"viability, T/C",[27],45.1%
same,"viability, T/C",[12],48%
same,"viability, T/C",[13],41.3%
same,"viability, T/C",[28],50.7%
same,"viability, T/C",[29],45.4%
same,"viability, T/C",[30],39.7%
same,"viability, T/C",[31],30.6%
same,"viability, T/C",[14],50.8%
same,"viability, T/C",[15],44.6%
same,outcome,"second compound 10 µM, first compound 0.316 µM",inactive
same,"viability, T/C","second compound 10 µM, first compound 1 µM",38.6%
same,"viability, T/C","second compound 10 µM, first compound 3.16 µM",34.4%
same,"viability, T/C","second compound 10 µM, first compound 10 µM",27.6%
COc1cc2nc(C)nc(NC(C)c3cc(N)cc(C(F)(F)F)c3)c2cc1OC1CCOC1 (stereo unspecified),IC50,"compound alone, run of 09/02/2021",4.36 µM [middle of 5 runs]
